Values quoted from earlier work in paper PMC7935732 (Targeted Oncology, 2021).

Columns and labels:
CDK 4 = settings: compared with abemaciclib; cited from earlier work
CDK 6 = settings: compared with abemaciclib; cited from earlier work

Row | Compound | Inhibitory potency for CDK 4 (CDK 4) | Inhibitory potency for CDK 6 (CDK 6)
1 | Cc1nc2c(F)cc(-c3nc(Nc4ccc(CN5CCNCC5)cn4)ncc3F)cc2n1C(C)C [M2] | comparable inhibitory potencies | comparable inhibitory potencies
2 | CCN1CCN(Cc2ccc(Nc3ncc(F)c(-c4cc(F)c5nc(CO)n(C(C)C)c5c4)n3)nc2)CC1 [M20] | comparable inhibitory potencies | comparable inhibitory potencies
